Measured values published in patent publication US5561117A, “Bridged bis-aryl carbinol derivatives, compositions and methods of use” (Schering Corporation, priority 1994, dated 1996).

Columns and labels:
[1] = test system: PAF-induced platelet aggregation (human platelets); experiment: In vitro platelet aggregation assay: inhibition of PAF-induced aggregation in platelet-rich plasma; type: cell-based; details: PAF-induced aggregation of human PRP, 2 min preincubation, 37° C., PAF 1-5×10^-8 M, read-out: PAF Antagonism (in vitro) IC50
Method: A. In Vitro Studies--Platelet Aggregation Assay
Platelet-activating factor (PAF) causes aggregation of platelets by a receptor-mediated mechanism. Therefore, PAF-induced platelet aggregation provides a simple and convenient assay to screen compounds for PAF antagonism.
Human blood (50 ml) was collected from healthy male donors in an anticoagulant solution (5 ml) containing sodium citrate (3.8%) and dextrose (2%). Blood was centriguged at 110×g for 15 min. and the supernatant platelet-rich plasma (PRP) carefully transferred into a polypropylene tube. Platelet-poor-plasma (PPP) was prepared by centrifuging PRP at 12,000×g for 2 min. (Beckman Microfuge B). PRP was used within 3 hr. of drawing the blood.
PAF was dissolved in chloroform:methanol (1:1, v/v) at a concentration of 2 mg/ml and stored at -70° C. An aliquot of this solution was transferred to a polypropylene tube and dried under a flow of nitrogen gas. To the dried sample was added Hepes-saline-BSA (BSA=bovine serum albumen) buffer (25 mM Hepes, pH 7.4, […], 0.7 mM MgCl2 and 0.1% BSA) to obtain a 1 mM solution and sonicated for 5 min. in a bath sonicator. This stock solution was further diluted to appropriate concentrations in Hepes-saline-BSA buffer. Collagen (Sigma) and adenosine diphosphate (ADP) (Sigma) were purchased as solutions. Test compounds were initially dissolved in dimethyl sulfoxide (DMSO) at a concentration of 50 mM and then further diluted in Hepes-saline-BSA buffer to achieve appropriate concentrations.
When an aggregating agent such as PAF is added to PRP, platelets aggregate. An aggregometer quantifies this aggregation by measuring and comparing light (infra-red) transmission through PPP and PRP. Aggregation assays were performed using a dual-channel aggregometer (Model 440, Chrono-Log Corp., Havertown, Pa.). PRP (0.45 ml) in aggregometer cuvettes was continually stirred (37° C.). Solutions (50 μL) of test compounds or vehicel were added to the PRP and, after incubation for 2 min., 10-15 μl aliquots of PAF solution were added to achieve a final concentration of 1-5×10^-8 M. In different experiments the aggreatory response was kept within a set limit by varying the concentration of PAF. Incubations were continued until the increase in light transmission reached a maximum (usually 2 min.). This increase in light transmission reflecting platlet aggregation is transmitted to a computer by the Chrono-Log model 810 AGGRO/LINK interface. The AGGRO/LINK calculates the slope of transmission change, thus providing the rate of aggregation. Values for inhibition were calculated by comparing rates of aggregation obtained in the absence and the presence of the compound. For each experiment, a standard PAF antagonist such as 8-chloro-6,11-dihydro-11-(1-acetyl-4-piperidylidene)-5H-benzo[5,6]cyclohepta[1,2-b]pyridine was used as a positive control. […]

PAF-induced bronchospasm = experiment: Spasmogen-induced bronchospasm in guinea pigs, PAF challenge; type: in vivo, guinea pig (male Hartley); details: dose 3 mpk, PAF 0.4 μg/kg i.v., inhibition of increase in inflation pressure vs control
[2] = test system: histamine-induced bronchospasm; experiment: Spasmogen-induced bronchospasm in guinea pigs, histamine challenge; type: in vivo, guinea pig (male Hartley); details: dose 3 mpk, histamine 10 ug/kg i.v., inhibition of increase in inflation pressure vs control

IC50 [1] | SMILES | Agonist Bronchospasm (in Vivo)-oral, PAF, % Inhibition (PAF-induced bronchospasm) | Agonist Bronchospasm (in Vivo)-oral, Histamine, % Inhibition [2]
1750 nM | [O-][n+]1ccc(CN2CCC(C3(O)c4ccccc4Sc4ccccc43)CC2)cc1 [IA-14] |  | 
1500 nM | O=C(c1cc[n+]([O-])cc1)N1CCC(C2(O)c3ccccc3Sc3ccccc32)CC1 [IA-6] | 20% | 
5000 nM | [O-][n+]1ccc(CN2CCC(C3(O)c4ccccc4Oc4cccnc43)CC2)cc1 (stereo not shown) [IA-11] |  | 
> 10000 nM | [O-][n+]1ccc(CN2CCC(C3(O)c4ccccc4Oc4cnccc43)CC2)cc1 (stereo not shown) [IA-9] |  | 
5000 nM | CN1c2ccccc2C(O)(C2CCN(C(=O)c3cc[n+]([O-])cc3)CC2)c2ccccc21 [IA-5] | 7% | 
3000 nM | [O-][n+]1ccc(CN2CCC(C3(O)c4ccccc4Oc4ncccc43)CC2)cc1 (stereo not shown) [IA-12] | 42% | 0%
2000 nM | O=C(c1cc[n+]([O-])cc1)N1CCC(C2(O)c3ccccc3Oc3cccnc32)CC1 (stereo not shown) [IA-3] | 97% | 0%
5000 nM | O=C(c1cc[n+]([O-])cc1)N1CCC(C2(O)c3ccccc3Oc3ccccc32)CC1 [IA-2] |  | 
800 nM | O=C(c1cc[n+]([O-])cc1)N1CCC(C2(O)c3ccccc3Oc3ncccc32)CC1 (stereo not shown) [IA-4] |  | 
2000 nM | O=C(c1cc[n+]([O-])cc1)N1CCC(C2(O)c3ccccc3CCc3cccnc32)CC1 (stereo not shown) [IA-8] | 25% | 
10000 nM | [O-][n+]1ccc(CN2CCC(C3(O)c4ccccc4Oc4ccccc43)CC2)cc1 [IA-10] |  | 
5000 nM | O=C(c1cc[n+]([O-])cc1)N1CCC(C2(O)c3ccccc3Oc3cnccc32)CC1 (stereo not shown) [IA-1] |  | 
